Legend:
SF-539 = assay: NCI growth inhibition and cytotoxicity screen, CNS Cancer panel; conditions: Homo sapiens; for GI50: SF-539; for CC50: SF-539, read-out: LC50
COLO 205 = assay: NCI growth inhibition and cytotoxicity screen, Colon Cancer panel; conditions: Homo sapiens; for CC50: COLO 205, read-out: LC50
SF-295 = assay: NCI growth inhibition and cytotoxicity screen, CNS Cancer panel; format: cell-based; conditions: Homo sapiens, Table 2, cell line SF-295 (CNS Cancer); for CC50: read-out: LC50 (the source's name)
K-562 = assay: NCI growth inhibition and cytotoxicity screen, Leukemia panel; conditions: Homo sapiens; for GI50: K562; for CC50: K562, read-out: LC50
HT29 = assay: NCI growth inhibition and cytotoxicity screen, Colon Cancer panel; conditions: Homo sapiens; for GI50: HT-29; for CC50: HT-29, read-out: LC50
BT-549 = assay: NCI growth inhibition and cytotoxicity screen, Breast Cancer panel; conditions: Homo sapiens; for GI50: BT-549; for CC50: BT-549, read-out: LC50
TK-10 = assay: NCI growth inhibition and cytotoxicity screen, Renal Cancer panel; conditions: Homo sapiens; for GI50: TK-10; for CC50: TK-10, read-out: LC50
CAKI-1 = assay: as above; conditions: Homo sapiens; for GI50: CAKI-1; for CC50: CAKI-1, read-out: LC50
RPMI-8226 = assay: NCI growth inhibition and cytotoxicity screen, Leukemia panel; conditions: Homo sapiens; for GI50: RPMI-8226; for CC50: RPMI-8226, read-out: LC50
MDA-MB-231/ATCC = assay: NCI growth inhibition and cytotoxicity screen, Breast Cancer panel; conditions: Homo sapiens; for GI50: MDA-MB-231; for CC50: MDA-MB-231, read-out: LC50
UO-31 = assay: NCI growth inhibition and cytotoxicity screen, Renal Cancer panel; conditions: Homo sapiens; for CC50: UO-31, read-out: LC50
MALME-3M = assay: NCI growth inhibition and cytotoxicity screen, Melanoma panel; conditions: Homo sapiens; for CC50: read-out: LC50
MDA-MB-435 = assay: as above; conditions: Homo sapiens; for GI50: MDA-MB-435; for CC50: MDA-MB-435, read-out: LC50
NCI-H322M = assay: NCI growth inhibition and cytotoxicity screen, Lung Cancer panel; conditions: Homo sapiens; for CC50: read-out: LC50
OVCAR-3 = assay: cells; conditions: Homo sapiens; for GI50: OVCAR-3; for CC50: OVCAR-3, read-out: LC50
CCRF-CEM = assay: NCI growth inhibition and cytotoxicity screen, Leukemia panel; conditions: Homo sapiens; for CC50: read-out: LC50
OVCAR-5 = assay: NCI growth inhibition and cytotoxicity screen, Ovarian Cancer panel; conditions: Homo sapiens; for GI50: OVCAR-5; for CC50: OVCAR-5, read-out: LC50
MCF7 = assay: NCI growth inhibition and cytotoxicity screen, Breast Cancer panel; conditions: Homo sapiens; for GI50: MCF7; for CC50: MCF7, read-out: LC50
NCI-H23 = assay: NCI growth inhibition and cytotoxicity screen, Lung Cancer panel; conditions: Homo sapiens; for GI50: NCI-H23; for CC50: NCI-H23, read-out: LC50
IGROV1 = assay: NCI growth inhibition and cytotoxicity screen, Ovarian Cancer panel; conditions: Homo sapiens; for GI50: IGROV-1; for CC50: IGROV-1, read-out: LC50
A498 = assay: NCI growth inhibition and cytotoxicity screen, Renal Cancer panel; conditions: Homo sapiens; for GI50: A498; for CC50: A498, read-out: LC50
T-47D = assay: NCI growth inhibition and cytotoxicity screen, Breast Cancer panel; conditions: Homo sapiens, T47D; for CC50: read-out: LC50
NCI-H226 = assay: NCI growth inhibition and cytotoxicity screen, Lung Cancer panel; conditions: Homo sapiens; for GI50: NCI-H226; for CC50: NCI-H226, read-out: LC50
SK-MEL-2 = assay: NCI growth inhibition and cytotoxicity screen, Melanoma panel; conditions: Homo sapiens; for GI50: SK-MEL-2; for CC50: SK-MEL-2, read-out: LC50
786-0 = assay: NCI growth inhibition and cytotoxicity screen, Renal Cancer panel; conditions: Homo sapiens; for GI50: 786-0; for CC50: 786-0, read-out: LC50
ACHN = assay: as above; conditions: Homo sapiens; for CC50: read-out: LC50
KM12 = assay: NCI growth inhibition and cytotoxicity screen, Colon Cancer panel; conditions: Homo sapiens; for GI50: KM12; for CC50: KM12, read-out: LC50
NCI/ADR-RES = assay: NCI growth inhibition and cytotoxicity screen, Ovarian Cancer panel; conditions: Homo sapiens; for CC50: read-out: LC50
LOX-IMVI = assay: NCI growth inhibition and cytotoxicity screen, Melanoma panel; conditions: Homo sapiens; for CC50: read-out: LC50
HL-60(TB) = assay: cells; conditions: Homo sapiens; for GI50: HL-60; for CC50: HL-60, read-out: LC50
SK-MEL-28 = assay: NCI growth inhibition and cytotoxicity screen, Melanoma panel; conditions: Homo sapiens; for GI50: SK-MEL-28; for CC50: SK-MEL-28, read-out: LC50
MOLT-4 = assay: NCI growth inhibition and cytotoxicity screen, Leukemia panel; conditions: Homo sapiens; for GI50: MOLT-4; for CC50: MOLT-4, read-out: LC50

Molecule `COc1cc(OC)cc(/C(C#N)=C/c2cnc3ccccc3c2)c1` [PNR-4-85, (Z)-3-(quinolin-3-yl)-2-(3,5-dimethoxyphenyl)acrylonitrile] has a GI50 (SF-539) of 289 nM, a CC50 (SF-539) greater than 100000 nM and a GI50 (COLO 205; COLO 205) of 398 nM. It also gave a CC50 (COLO 205) of 89900 nM, a GI50 (SF-295) of 243 nM and a CC50 (SF-295) greater than 100000 nM. The GI50 (K-562) was 243 nM, the CC50 (K-562) was greater than 100000 nM and the GI50 (HT29) was 362 nM. It also gave a CC50 (HT29) greater than 100000 nM, a GI50 (BT-549) of 388 nM and a CC50 (BT-549) greater than 100000 nM. It also gave a GI50 (TK-10) of 17700 nM, a CC50 (TK-10) greater than 100000 nM and a GI50 (CAKI-1) of 223 nM. For the same molecule, the CC50 (CAKI-1) was greater than 100000 nM, the GI50 (RPMI-8226) was 332 nM and the CC50 (RPMI-8226) was greater than 100000 nM. The GI50 (MDA-MB-231/ATCC) was 1150 nM, the CC50 (MDA-MB-231/ATCC) was greater than 100000 nM and the CC50 (UO-31) was greater than 100000 nM. The GI50 (MALME-3M) was 635 nM, the CC50 (MALME-3M) was greater than 100000 nM and the GI50 (MDA-MB-435) was 53 nM. It also gave a CC50 (MDA-MB-435) greater than 100000 nM, a GI50 (NCI-H322M) of 903 nM and a CC50 (NCI-H322M) greater than 100000 nM. The GI50 (OVCAR-3) was 279 nM, the CC50 (OVCAR-3) was greater than 100000 nM and the GI50 (CCRF-CEM) was 332 nM. The CC50 (CCRF-CEM) was greater than 100000 nM, the GI50 (OVCAR-5) was 587 nM and the CC50 (OVCAR-5) was greater than 100000 nM. It also gave a GI50 (MCF7) of 333 nM, a CC50 (MCF7) greater than 100000 nM and a GI50 (NCI-H23) of 747 nM. The CC50 (NCI-H23) was greater than 100000 nM, the GI50 (IGROV1) was 3500 nM and the CC50 (IGROV1) was greater than 100000 nM. For the same molecule, the GI50 (A498) was 333 nM, the CC50 (A498) was greater than 100000 nM and the GI50 (T-47D) was 628 nM. For the same molecule, the CC50 (T-47D) was greater than 100000 nM, the GI50 (NCI-H226) was 62200 nM and the CC50 (NCI-H226) was greater than 100000 nM. For the same molecule, the GI50 (SK-MEL-2) was 709 nM, the CC50 (SK-MEL-2) was greater than 100000 nM and the GI50 (786-0) was 484 nM. It also gave a CC50 (786-0) greater than 100000 nM, a GI50 (ACHN) of 1190 nM and a CC50 (ACHN) greater than 100000 nM. For the same molecule, the GI50 (KM12) was 409 nM, the CC50 (KM12) was greater than 100000 nM and the GI50 (NCI/ADR-RES) was 224 nM. It also gave a CC50 (NCI/ADR-RES) greater than 100000 nM, a GI50 (LOX-IMVI) of 672 nM and a CC50 (LOX-IMVI) greater than 100000 nM. The GI50 (HL-60(TB)) was 234 nM, the CC50 (HL-60(TB)) was greater than 100000 nM and the GI50 (SK-MEL-28) was 1400 nM. The CC50 (SK-MEL-28) was greater than 100000 nM, the GI50 (MOLT-4) was 378 nM and the CC50 (MOLT-4) was greater than 100000 nM.

With `COc1cc(/C(C#N)=C/c2cnc3ccccc3c2)cc(OC)c1OC` [PNR-5-10, (Z)-3-(quinolin-3-yl)-2-(3,4,5-trimethoxyphenyl)acrylonitrile] the GI50 (SF-539) was 361 nM, the CC50 (SF-539) was greater than 100000 nM and the CC50 (COLO 205) was 9440 nM. For the same molecule, the GI50 (SF-295) was 556 nM, the CC50 (SF-295) was greater than 100000 nM and the GI50 (K-562) was 444 nM. For the same molecule, the CC50 (K-562) was greater than 100000 nM, the GI50 (HT29) was 421 nM and the CC50 (HT29) was greater than 100000 nM. For the same molecule, the GI50 (BT-549) was 1430 nM, the CC50 (BT-549) was greater than 100000 nM and the GI50 (TK-10) was 2550 nM. The CC50 (TK-10) was greater than 100000 nM, the GI50 (CAKI-1) was 346 nM and the CC50 (CAKI-1) was greater than 100000 nM. The GI50 (RPMI-8226) was 2060 nM, the CC50 (RPMI-8226) was greater than 100000 nM and the GI50 (MDA-MB-231/ATCC) was 2830 nM. For the same molecule, the CC50 (MDA-MB-231/ATCC) was greater than 100000 nM, the GI50 (UO-31; UO-31) was 580 nM and the CC50 (UO-31) was greater than 100000 nM. It also gave a GI50 (MALME-3M) of 691 nM, a CC50 (MALME-3M) greater than 100000 nM and a GI50 (MDA-MB-435) of 227 nM. The CC50 (MDA-MB-435) was greater than 100000 nM, the GI50 (NCI-H322M) was 27400 nM and the CC50 (NCI-H322M) was greater than 100000 nM. It also gave a GI50 (OVCAR-3) of 263 nM, a CC50 (OVCAR-3) greater than 100000 nM and a GI50 (CCRF-CEM) of 1380 nM. It also gave a CC50 (CCRF-CEM) greater than 100000 nM, a GI50 (OVCAR-5) of 3940 nM and a CC50 (OVCAR-5) greater than 100000 nM. For the same molecule, the GI50 (MCF7) was 429 nM, the CC50 (MCF7) was greater than 100000 nM and the GI50 (NCI-H23) was 2930 nM. For the same molecule, the CC50 (NCI-H23) was greater than 100000 nM, the GI50 (IGROV1) was 3150 nM and the CC50 (IGROV1) was greater than 100000 nM. It also gave a GI50 (A498) of 678 nM, a CC50 (A498) greater than 100000 nM and a GI50 (T-47D) of 9540 nM. It also gave a CC50 (T-47D) greater than 100000 nM, a GI50 (NCI-H226) greater than 100000 nM and a CC50 (NCI-H226) greater than 100000 nM. The GI50 (SK-MEL-2) was 1050 nM, the CC50 (SK-MEL-2) was greater than 100000 nM and the GI50 (786-0) was 6290 nM. The CC50 (786-0) was greater than 100000 nM, the GI50 (ACHN) was 911 nM and the CC50 (ACHN) was greater than 100000 nM. The GI50 (KM12) was 436 nM, the CC50 (KM12) was greater than 100000 nM and the GI50 (NCI/ADR-RES) was 343 nM. It also gave a CC50 (NCI/ADR-RES) greater than 100000 nM, a GI50 (LOX-IMVI) of 645 nM and a CC50 (LOX-IMVI) greater than 100000 nM. For the same molecule, the GI50 (HL-60(TB)) was 329000 nM, the CC50 (HL-60(TB)) was greater than 100000 nM and the GI50 (SK-MEL-28) was 3270 nM. It also gave a CC50 (SK-MEL-28) greater than 100000 nM, a GI50 (MOLT-4) of 3200 nM and a CC50 (MOLT-4) greater than 100000 nM.

— patent publication US9884842B2, “Combretastatin analogs” (The Board of Trustees of the University of Arkansas, priority 2013, dated 2018)
